Converted amounts (≈) assume the structure as drawn. Where two headings read alike, the source gives them in different places.

For one experiment, the system named is RSV A2. Kind of experiment: In vitro probenecid inhibition assay, RSV A2 (plaque assay). In kind it is cell-based, respiratory syncytial virus (RSV). Conditions: for IC50 / IC90: human respiratory syncytial virus; for virus replication compared to control (DMSO only): Vero E6, HEp-2 and NHBE cells.
In experiment [1] the test system is A/WSN/33 (H1N1). Kind of experiment: A/WSN/33 (H1N1) IC50 (Perwitasari et al.). In kind it is cell-based. The settings on record: Influenza A virus; converted from 0.5 nM.
Experiment [2] deals with SARS-CoV-2. Conditions: 90% inhibition of COVID-19 viral replication; Investigator Brochure; read-out: IC90 level; cited from earlier work.
The subject of a further experiment is influenza virus. Kind of experiment: Influenza assays in A549 cells. It is filed as cell-based. As to the method: Experiment Conducted in A549 Cells.
[…] with influenza virus (MOI=0.1) for 1 hour
The virus is plaqued in MDCK cells while studies are carried out in human respiratory epithelial cells.

Experiment [3] concerns SARS-CoV-2. Kind of experiment: SARS-CoV-2 IC90 (Investigator Brochure). Conditions: Severe acute respiratory syndrome coronavirus 2, read-out: IC90 level corrected for 95% protein binding.
For another experiment, the system named is Dengue Type 1 virus. Kind of experiment: Dengue assay in Vero-P cells. Conditions: MOI=0.1, FIG. 12.
Experiment [4] deals with A/WSN/33 (H1N1). The settings on record: Perwitasari et al. 2013; cited from earlier work.
In experiment [5] the test system is SARS-CoV-2. Conditions: ten non-hospitalized patients, mild to moderate infection; 28 day; cited from earlier work.
A further experiment has as its system Burkholderia. Kind of experiment: Bacterial replication in macrophage. Conditions: macrophage-associated bacteria.
The mark [6] stands for this setting: Vero C1008, Prophylaxis (24 h before infection), Vero E6 cells.
[7] abbreviates: Vero C1008, Treatment (24 h after infection), Vero E6 cells.
The mark [8] stands for this setting: Prophylaxis (24 h before infection), HEp-2 cells.
Setting [9] is: Prophylaxis (24 h before infection), NHBE cells.
Where [10] appears, read: Treatment (24 h after infection), HEp-2 cells.
Where [11] appears, read: Treatment (24 h after infection), NHBE cells.

For the compound `CCCN(CCC)S(=O)(=O)c1ccc(C(=O)O)cc1` [Probenecid, 4-[(dipropylamino)sulfonyl] benzoic acid], the IC50 is 0.07 µM with RSV A2 (setting [6]); 0.1 µM with RSV A2 (setting [7]); 0.8 µM in the experiment on RSV A2 (setting [8]); 0.4 µM with RSV A2 (setting [9]); 1.2 µM in the experiment with RSV A2 (setting [10]); 0.3 µM in the experiment on RSV A2 (setting [11]). For the same compound, the 50% inhibitory concentration (IC50) is 0.000143 µg/mL (≈ 0.000501 µM) in the experiment with A/WSN/33 (H1N1) [1] and 0.0005 µM in the experiment with A/WSN/33 (H1N1) [4]. The concentration for an effect of 90% (IC90) was found to be 0.63 µM in the experiment on RSV A2 (setting [6]); 2.7 µM in the experiment with RSV A2 (setting [7]); 7.2 µM in the experiment on RSV A2 (setting [8]); 3.6 µM in the experiment with RSV A2 (setting [9]); 10.8 µM in the experiment with RSV A2 (setting [10]); 2.7 µM with RSV A2 (setting [11]). Besides, the concentration for an effect of 90% (IC90) was 0.364 µM in the experiment with SARS-CoV-2 [2] and 2.08 µg/mL (≈ 7.29 µM) with SARS-CoV-2 [3]. Further, the “virus replication compared to control (DMSO only)” value in the experiment on RSV A2 (prophylaxis 24 h before RSV A2 infection, FIG. 1) is “significantly (**** p<0.0001) inhibited the virus replication”; in the experiment on RSV A2 (treated 24 h after RSV A2 infection, FIG. 2), “significantly (**** p<0.0001) inhibited the virus replication”. In the experiment with influenza virus, the IC50 for flu entry is “in the picomolar range”. Moreover, the “inhibition of virus replication” value in the experiment with Dengue Type 1 virus is listed as “picomolar levels of probenecid were effective at inhibiting virus replication”. The patient symptoms result in the experiment with SARS-CoV-2 [5] was “patient symptoms showed improvement”. For the same compound, in the experiment on Burkholderia, the killing of bacteria entry was “did not kill bacteria”.

Values taken from US20240327339A1, “COMPOSITIONS AND METHODS FOR TREATING AND PREVENTING VIRAL INFECTIONS” (priority 2021, published 2024).
